How the values were obtained:
Type in all cases: cell-based
HTT AJ mRNA = assay: Splicing assay (RT-qPCR): increase in HTT alternative junction (AJ) mRNA; settings: A673 or K562 cells, 24 hours treatment; concentration having 50% response in AJ mRNA increase
Protocol: (§1) Compounds described herein were used to modulate RNA transcript abundance in cells. The expression of a target mRNA was measured by detecting the formation of an exon-exon junction in the canonical transcript (CJ). A compound mediated exon-inclusion event was detected by observing an increase in formation of a new junction with an alternative exon (AJ). Real-time qPCR assays were used to detect these splicing switches and interrogate the potency of various compounds towards different target genes. A high-throughput real time quantitative PCR (RT-qPCR) assay was developed to measure these two isoforms of the mRNA (CJ and AJ) for an exemplary gene, HTT, together with a control housekeeping gene, GAPDH or GUSB or PPIA, used for normalization. Briefly, the A673 or K562 cell line was treated with various compounds described herein (e.g., compounds of Formula (I)). After treatment, the levels of the HTT mRNA targets were determined from each sample of cell lysate by cDNA synthesis followed by qPCR.
(§2) The A673 cell line was cultured in DMEM with 10% FBS. Cells were diluted with full growth media and plated in a 96-well plate (15,000 cells in 100 ul media per well). The plate was incubated at 37° C. with 5% CO2 for 24 hours to allow cells to adhere. An 11-point 3-fold serial dilution of the compounds was made in DMSO then diluted in media in an intermediate plate. Compounds were transferred from the intermediate plate to the cell plate with the top dose at a final concentration of 10 uM in the well. Final DMSO concentration was kept at or below 0.25%. The cell plate was returned to the incubator at 37° C. with 5% CO2 for an additional 24 hours.
(§3) The K562 cell line was cultured in IMDM with 10% FBS. For K562, cells were diluted with full growth media and plated in either a 96-well plate (50,000 cells in 50 uL media per well) or a 384-well plate (8,000-40,000 cells in 45 uL media per well). An 11-point 3-fold serial dilution of the compounds were made in DMSO then diluted in media in an intermediate plate. Compound was transferred from the intermediate plate to the cell plate with the top dose at a final concentration of 10 uM in the well. Final DMSO concentration was kept at or below 0.25%. Final volume was 100 uL for 96-well plate and 50 uL for 384-well plate. The cell plate was then placed in an incubator at 37° C. with 5% CO2 for 24 hours.
(§4) The cells were then gently washed with 50 uL-100 uL cold PBS before proceeding to addition of lysis buffer. 30 uL-50 uL of room temperature lysis buffer with DNAse I (and optionally RNAsin) was added to each well. Cells were shaken/mixed thoroughly at room temperature for 5-10 minutes for lysis to take place and then 3 uL-5 uL of room temperature stop solution was added and wells were shaken/mixed again. After 2-5 minutes, the cell lysate plate was transferred to ice for RT-qPCR reaction setup. The lysates could also be frozen at −80° C. for later use.
(§5) In some cases, a direct lysis buffer was used. An appropriate volume of 3× lysis buffer (10 mM Tris, 150 mM NaCl, 1.5%-2.5% Igepal and 0.1-1 U/uL RNAsin, pH 7.4) was directly added to either K562 or A673 cells in media and mixed by pipetting 3 times. The plates were then incubated at room temperature with shaking/rocking for 20-50 minutes to allow for lysis to take place. After this time, the cell lysate plate was transferred to ice to set up for the RT-qPCR reactions. The lysates could also be frozen at −80° C. for later use.
(§6) To set up 10 uL RT-qPCR reactions, cell lysates were transferred to 384-well qPCR plates containing the master mix according to the table below. The plates were sealed, gently vortexed, and spun down before the run. The volumes were adjusted accordingly in some instances where the reaction was carried in 20 uL. The table below summarizes the components of the RT-qPCR reactions:
(§7) The RT-qPCR reaction was performed using a QuantStudio (ThermoFisher) under the following fast cycling conditions. […]

HTT CJ mRNA [1] = assay: Splicing assay (RT-qPCR): decrease in HTT canonical junction (CJ) mRNA; settings: A673 or K562 cells, 24 hours treatment; concentration having 50% response in CJ mRNA decrease
Protocol: as §1, §2, §3, §4, §5, §6, §7

HTT CJ mRNA [2] = assay: Gene panel canonical junction qPCR assay: HTT; settings: Table 3, concentration having 50% response in CJ decrease, read-out: HTT IC50 (decrease in CJ mRNA levels)
Protocol: as §1, §2, §3, §4, §5, §6, §7

SMN2 CJ mRNA = assay: Gene panel canonical junction qPCR assay: SMN2; settings: Table 3, concentration having 50% response in CJ decrease, read-out: SMN2 IC50 (decrease in CJ mRNA levels)
Protocol: as §1, §2, §3, §4, §5, §6, §7

Target C CJ mRNA = assay: Gene panel canonical junction qPCR assay: Target C; settings: Table 3, concentration having 50% response in CJ decrease, read-out: Target C IC50 (decrease in CJ mRNA levels)
Protocol: as §1, §2, §3, §4, §5, §6, §7

Structure (SMILES) | AC50 (HTT AJ mRNA) [µM] | AC50 (HTT CJ mRNA [1]) [µM] | IC50 (HTT CJ mRNA [2]) [µM] | IC50 (SMN2 CJ mRNA) [µM] | IC50 (Target C CJ mRNA) [µM]
Cc1cn2cc(NC(=O)c3sc(N4CCN(C)CC4)cc3F)cc(F)c2n1 [Compound 127, 3-fluoro-N-[8-fluoro-2-methylimidazo [1,2-a]pyridin-6-yl]-5-(4-methylpiperazin-1-yl) thiophene-2-carboxamide] | > 10 | > 10 | > 0.01 | 0.1 to 1 | < 0.1
Cc1cn2cc(NC(=O)c3sc(N4CCN(C)C(C)C4)cc3F)cc(F)c2n1 (stereo not shown) [Compound 129, 5-(3,4-dimethylpiperazin-1-yl)-3-fluoro-N-[8-fluoro-2-methylimidazo[1,2-a]pyridin-6-yl]thiophene-2-carboxamide] | > 10 | > 10 | > 0.01 | 1 to 10 | > 0.01
Cc1cn2cc(NC(=O)c3sc(N4CCNC(C)(C)C4)cc3F)cc(F)c2n1 [Compound 131, 5-(3,3-dimethylpiperazin-1-yl)-3-fluoro-N-[8-fluoro-2-methylimidazo[1,2-a]pyridin-6-yl] thiophene-2-carboxamide] | 1 to 10 | 1 to 10 | 1 to 10 | 0.1 to 1 | > 0.01
Cc1cn2cc(NC(=O)c3sc(N4CCNC5(CC5)C4)cc3F)cc(F)c2n1 [Compound 132, 5-[4,7-diazaspiro[2.5]octan-7-yl]-3-fluoro-N-[8-fluoro-2-methylimidazo[1,2-a]pyridin-6-yl]thiophene-2-carboxamide] | > 10 | > 10 | > 0.01 | 1 to 10 | > 0.01
Cc1cn2cc(NC(=O)c3sc(N4CC(C)(C)NC(C)(C)C4)cc3F)cc(F)c2n1 [Compound 133, 3-fluoro-N-[8-fluoro-2-methylimidazo[1,2-a]pyridin-6-yl]-5-(3,3,5,5-tetramethylpiperazin-1-yl)thiophene-2-carboxamide] | > 10 | > 10 | > 0.01 | 1 to 10 | > 0.01
Cc1cn2cc(NC(=O)c3sc(N4CC5(CNC5)C4)cc3F)cc(F)c2n1 [Compound 134, 5-[2,6-diazaspiro[3.3]heptan-2-yl]-3-fluoro-N-[8-fluoro-2-methylimidazo[1,2-a]pyridine-6-yl]thiophene-2-carboxamide] | 1 to 10 | 1 to 10 | 1 to 10 | 0.1 to 1 | 1 to 10
Cc1cn2cc(NC(=O)c3sc(N4CCC(N5CCCC5)C4)cc3F)cc(F)c2n1 (stereo not shown) [Compound 136, 5-[[1,3′-bipyrrolidin]-1′-yl]-3-fluoro-N-[8-fluoro-2-methylimidazo[1,2-a]pyridin-6-yl]thiophene-2-carboxamide] | > 10 | > 10 | > 0.01 | 0.1 to 1 | > 0.01
Cc1cn2cc(NC(=O)c3sc(N4CCC(NC(C)(C)C)C4)cc3F)cc(F)c2n1 (stereo not shown) [Compound 137, 5-[3-(tert-butylamino)pyrrolidin-1-yl]-3-fluoro-N-[8-fluoro-2-methylimidazo[1,2-a]pyridin-6-yl]thiophene-2-carboxamide] | > 10 | > 10 | > 0.01 | > 0.01 | 0.1 to 1
Cc1cn2cc(NC(=O)c3sc(N4CCC(N(C)C)C4)cc3F)cc(F)c2n1 (stereo not shown) [Compound 138, 5-[3-(dimethylamino)pyrrolidin-1-yl]-3-fluoro-N-[8-fluoro-2-methylimidazo[1,2-a]pyridin-6-yl]thiophene-2-carboxamide] | > 10 | 1 to 10 | 1 to 10 | 0.1 to 1 | > 0.01
Cc1cn2cc(NC(=O)c3sc(N4CCN5CCCC5C4)cc3F)cc(F)c2n1 (stereo not shown) [Compound 139, 3-fluoro-N-[8-fluoro-2-methylimidazo[1,2-a]pyridin-6-yl]-5-[hexahydro-1H-pyrrolo[1,2-a]pyrazin-2-yl] thiophene-2-carboxamide] | > 10 | > 10 | > 0.01 | 1 to 10 | > 0.01
Cc1cn2cc(NC(=O)c3sc(N4CCC(NC(C)(C)C)CC4)cc3F)cc(F)c2n1 [Compound 141, 5-[4-(tert-butylamino)piperidin-1-yl]-3-fluoro-N-[8-fluoro-2-methylimidazo[1,2-a]pyridin-6-yl]thiophene-2-carboxamide] | > 10 | > 10 | > 0.01 | 1 to 10 | > 0.01
CCNC1CCN(c2cc(F)c(C(=O)Nc3cc(F)c4nc(C)cn4c3)s2)CC1 [Compound 142, 5-[4-(ethylamino)piperidin-1-yl]-3-fluoro-N-[8-fluoro-2-methylimidazo [1,2-a]pyridin-6-yl]thiophene-2-carboxamide] | 1 to 10 | 1 to 10 | 1 to 10 | 1 to 10 | 1 to 10
Cc1cn2cc(NC(=O)c3sc(N4C[C@H]5CC[C@@H](C4)N5)cc3F)cc(F)c2n1 [Compound 143, 5-[(1R,5S)-3,8-diazabicyclo[3.2.1]octan-3-yl]-3-fluoro-N-[8-fluoro-2-methylimidazo[1,2-a]pyridin-6-yl]thiophene-2-carboxamide] | > 10 | > 10 | > 0.01 | 1 to 10 | 1 to 10
Cc1cn2cc(NC(=O)c3sc(C4CCN(C)CC4)cc3F)cc(F)c2n1 [Compound 145, 3-fluoro-N-[8-fluoro-2-methylimidazo [1,2-a]pyridin-6-yl]-5-(1-methylpiperidin-4-yl)thiophene-2-carboxamide] | 1 to 10 | 1 to 10 | 1 to 10 | 0.1 to 1 | 1 to 10
CCN1CCC(c2cc(F)c(C(=O)Nc3cc(F)c4nc(C)cn4c3)s2)CC1 [Compound 146, 5-(1-ethylpiperidin-4-yl)-3-fluoro-N-[8-fluoro-2-methylimidazo[1,2-a]pyridin-6-yl]thiophene-2-carboxamide] | 1 to 10 | 1 to 10 | 1 to 10 | 0.1 to 1 | < 0.1
Cc1cn2cc(NC(=O)c3sc(C4C[C@@H](C)N[C@@H](C)C4)cc3F)cc(F)c2n1 (stereo partly drawn) [Compound 147, 5-[(2R,6S)-2,6-dimethylpiperidin-4-yl]-3-fluoro-N-[8-fluoro-2-methylimidazo[1,2-a]pyridin-6-yl]thiophene-2-carboxamide] | 1 to 10 | 0.1 to 1 | 0.1 to 1 | < 0.1 | 1 to 10
Cc1cn2cc(NC(=O)c3sc(N(C)C4CC(C)(C)NC(C)(C)C4)cc3F)cc(F)c2n1 [Compound 149, 3-fluoro-N-[8-fluoro-2-methylimidazo[1,2-a]pyridin-6-yl]-5-[methyl(2,2,6,6-tetramethylpiperidin-4-yl)amino]thiophene-2-carboxamide] | > 10 | > 10 | > 0.01 | 0.1 to 1 | > 0.01

Source: patent US20230142338A1, “THIOPHENYL DERIVATIVES USEFUL FOR MODULATING NUCLEIC ACID SPLICING” (REMIX THERAPEUTICS INC., priority 2020, published 2023)
